The text below walks through data of ChEMBL document CHEMBL2346533, “Structural effect of phenyl ring compared to thiadiazole based adamantyl-sulfonamides on carbonic anhydrase inhibition” (Bioorg Med Chem, 2013).

The target in one assay is Carbonic anhydrase 3 (Homo sapiens, UniProt P07451). In words: Inhibition of human carbonic anhydrase-3 cytosolic isoform after 15 mins by Stopped-flow CO2 hydrase assay.
For the next assay, the target named is Carbonic anhydrase 1 (Homo sapiens, UniProt P00915). As to the kind of experiment: Inhibition of human carbonic anhydrase-1 cytosolic isoform after 15 mins by Stopped-flow CO2 hydrase assay.
Carbonic anhydrase 1, sequence (P00915 whole entry, canonical isoform): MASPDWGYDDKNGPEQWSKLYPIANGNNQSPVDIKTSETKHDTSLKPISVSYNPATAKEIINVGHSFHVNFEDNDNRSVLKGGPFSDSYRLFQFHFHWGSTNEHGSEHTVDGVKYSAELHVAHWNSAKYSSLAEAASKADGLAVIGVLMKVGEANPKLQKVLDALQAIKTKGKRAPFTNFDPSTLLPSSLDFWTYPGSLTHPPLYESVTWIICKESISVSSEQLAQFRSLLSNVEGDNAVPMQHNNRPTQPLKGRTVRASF
The next assay addresses Carbonic anhydrase 12 (Homo sapiens, UniProt O43570). As to the kind of experiment: Inhibition of tumor-associated transmembrane human carbonic anhydrase-12 after 15 mins by Stopped-flow CO2 hydrase assay.
The next assay deals with Carbonic anhydrase 9 (Homo sapiens, UniProt Q16790). As to the kind of experiment: Inhibition of tumor-associated transmembrane human carbonic anhydrase-9 after 15 mins by Stopped-flow CO2 hydrase assay.

Carbonic anhydrase 3, sequence (P07451 whole entry, canonical isoform): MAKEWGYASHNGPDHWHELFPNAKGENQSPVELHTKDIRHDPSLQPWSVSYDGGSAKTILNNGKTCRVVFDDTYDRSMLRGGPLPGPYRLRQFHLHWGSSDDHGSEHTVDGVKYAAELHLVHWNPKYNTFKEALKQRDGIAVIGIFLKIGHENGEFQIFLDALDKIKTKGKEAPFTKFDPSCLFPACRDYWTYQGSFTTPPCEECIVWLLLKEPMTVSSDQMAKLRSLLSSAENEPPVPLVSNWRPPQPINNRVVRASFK
Carbonic anhydrase 12, sequence (O43570 whole entry): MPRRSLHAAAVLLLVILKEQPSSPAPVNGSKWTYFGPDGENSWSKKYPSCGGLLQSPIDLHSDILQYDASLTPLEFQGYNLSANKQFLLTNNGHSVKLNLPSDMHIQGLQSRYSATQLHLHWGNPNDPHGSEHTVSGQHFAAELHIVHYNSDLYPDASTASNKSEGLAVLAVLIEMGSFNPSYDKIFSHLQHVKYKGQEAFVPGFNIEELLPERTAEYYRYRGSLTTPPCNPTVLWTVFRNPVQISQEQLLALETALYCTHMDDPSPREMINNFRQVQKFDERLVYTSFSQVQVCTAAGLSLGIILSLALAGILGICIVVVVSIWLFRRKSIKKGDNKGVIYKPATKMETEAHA

With `NS(=O)(=O)c1nnc(NC(=O)CC23CC4CC(CC(C4)C2)C3)s1`, the inhibitory constant (Ki) on Carbonic anhydrase 3 was 1400 µM; at Carbonic anhydrase 1 it was 0.34 µM.

Regarding `NS(=O)(=O)c1nnc(NC(=O)C23CC4CC(CC(C4)C2)C3)s1`, the Ki turned out to be 1200 µM at Carbonic anhydrase 3 and 0.85 µM on Carbonic anhydrase 1.

For the compound `NS(=O)(=O)c1ccc(NC(=O)C23CC4CC(CC(C4)C2)C3)cc1`, the Ki on Carbonic anhydrase 12 is 0.0071 µM; on Carbonic anhydrase 3, above 10000 µM; on Carbonic anhydrase 9, 0.0513 µM.

On to `NS(=O)(=O)c1ccc(NC(=O)CC23CC4CC(CC(C4)C2)C3)cc1`, for which the Ki is 0.0094 µM at Carbonic anhydrase 12, above 10000 µM on Carbonic anhydrase 3 and 0.0565 µM on Carbonic anhydrase 9.
